Source: US8063065B2, “Azaindazole compounds as CCR1 receptor antagonists” (Boehringer Ingelheim International GmbH, priority 2008, dated 2011)

Target: T1, CCR1 (Homo sapiens, UniProt P32246)
T1 sequence (P32246 1-355): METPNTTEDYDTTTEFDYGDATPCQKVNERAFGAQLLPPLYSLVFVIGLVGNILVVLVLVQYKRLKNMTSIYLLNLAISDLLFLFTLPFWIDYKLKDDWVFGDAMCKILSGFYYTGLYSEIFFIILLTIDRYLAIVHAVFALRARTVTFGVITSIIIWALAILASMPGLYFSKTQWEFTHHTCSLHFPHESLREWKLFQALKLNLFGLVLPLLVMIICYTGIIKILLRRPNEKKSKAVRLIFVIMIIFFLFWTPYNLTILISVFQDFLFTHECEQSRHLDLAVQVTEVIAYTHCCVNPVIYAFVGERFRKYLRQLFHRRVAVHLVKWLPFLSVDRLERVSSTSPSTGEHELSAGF
Test: Method A: calcium flux in CCR1 transfected cells (Fluo-4 NW, FLIPR TETRA), block of the CCR1/MIP-1α interaction
Type: cell-based
Settings: Method A: Fluo-4 NW, MIP-1 alpha at EC80
Procedure: Compounds are assessed for the ability to block the interaction of CCR1 and MIP-1α in a functional cellular assay measuring calcium flux in CCR1 transfected cells.
Method A: Non-adherent cells purchased from Chemicon Corporation (HTS005C), stably expressing recombinant CCR1 and G-alpha-16 are grown in RPMI 1640 medium (Mediatech 10-080-CM) supplemented with 10% heat-inactivated FBS, 0.4 mg/mL Geneticin and penicillin/streptomycin. On the day of the assay, the cells are transferred to a beaker and dye-loaded in bulk using a Fluo-4 NW Calcium Assay Kit with probenecid (Invitrogen F36205) at 0.8E6 cells/mL for 1 hour at room temperature. After 1 hour, they are seeded in a 384-well tissue culture-treated plate at a density of 20,000 cells/well. Appropriately diluted test compound is added to the well to achieve a top concentration of 3,000 nM (diluted 4-fold with 10 doses total). The final concentration of DMSO is 1%. The buffer is HBSS (Invitrogen 14025) with 20 mM HEPES at pH 7.4. The cells are allowed to incubate 1 hour in the dark at room temperature. The plates are transferred to the FLIPR TETRA where MIP-1 alpha in 1% BSA is added at the EC80 final concentration. Wells+/−MIP-1 alpha containing diluted DMSO instead of compound serve as the controls. Intracellular calcium flux is recorded on the FLIPR TETRA, using excitation at 470/495 nm and emission at 515/575 nm. Data are analyzed using Activity Base software.

IC50 [nM] | Structure (SMILES)
3 | COC(=O)CNS(=O)(=O)c1ccc(CNC(=O)c2cncc3c2cnn3-c2ccc(F)cc2)cc1 [[4-({[1-(4-Fluorophenyl)-1H-pyrazolo[3,4-c]pyridine-4-carbonyl]-amino}-methyl)-benzenesulfonylamino]-acetic acid methyl ester]
39 | CS(=O)(=O)c1cccc(CNC(=O)c2cncc3c2cnn3-c2ccc(F)cc2)n1 [1-(4-Fluorophenyl)-1H-pyrazolo[3,4-c]pyridine-4-carboxylic acid (6-methanesulfonyl-pyridin-2-ylmethyl)-amide]
2 | O=C(NCc1ccc(S(=O)(=O)N2CCOCC2)cc1)c1cncc2c1cnn2-c1ccc(F)cc1 [1-(4-Fluorophenyl)-1H-pyrazolo[3,4-c]pyridine-4-carboxylic acid 4-(morpholine-4-sulfonyl)-benzylamide]
2 | CN(C1CCNCC1)S(=O)(=O)c1ccc(CNC(=O)c2cncc3c2cnn3-c2ccc(F)cc2)cc1 [1-(4-Fluorophenyl)-1H-pyrazolo[3,4-c]pyridine-4-carboxylic acid 4-(methyl-piperidin-4-yl-sulfamoyl)-benzylamide]
3 | CN(C)C1CCN(S(=O)(=O)c2ccc(CNC(=O)c3cncc4c3cnn4-c3ccc(F)cc3)cc2)CC1 [1-(4-Fluorophenyl)-1H-pyrazolo[3,4-c]pyridine-4-carboxylic acid 4-(4-dimethylamino-piperidine-1-sulfonyl)-benzylamide]
13 | NS(=O)(=O)c1cc(CNC(=O)c2cncc3c2cnn3-c2ccc(F)cc2)ccn1 [1-(4-Fluorophenyl)-1H-pyrazolo[3,4-c]pyridine-4-carboxylic acid (2-sulfamoyl-pyridin-4-ylmethyl)-amide]
1 | COCCN(c1ccc(CNC(=O)c2cncc3c2cnn3-c2ccc(F)cc2)cn1)S(C)(=O)=O [1-(4-Fluorophenyl)-1H-pyrazolo[3,4-c]pyridine-4-carboxylic acid {6-[methanesulfonyl-(2-methoxy-ethyl)-amino]-pyridin-3-ylmethyl}-amide]
2 | O=C(NCc1ccc(S(=O)(=O)N2CCC(O)CC2)cc1)c1cncc2c1cnn2-c1ccc(F)cc1 [1-(4-Fluorophenyl)-1H-pyrazolo[3,4-c]pyridine-4-carboxylic acid 4-(4-hydroxy-piperidine-1-sulfonyl)-benzylamide]

The remaining lines, values behind:

Structure (SMILES) | IC50 [nM]
CCCC(NC(=O)c1cncc2c1cnn2-c1ccc(F)cc1)c1ccc(S(C)(=O)=O)nc1 (centres unmarked) [1-(4-Fluorophenyl)-1H-pyrazolo[3,4-c]pyridine-4-carboxylic acid [1-(6-methanesulfonyl-pyridin-3-yl)-butyl]-amide] | 0.8
CCCC(NC(=O)c1cncc2c1cnn2-c1ccc(F)cc1)c1ccnc(Br)c1 (centres unmarked) [1-(4-Fluorophenyl)-1H-pyrazolo[3,4-c]pyridine-4-carboxylic acid [1-(2-bromopyridin-4-yl)-butyl]-amide] | 0.4
CCC[C@H](NC(=O)c1cncc2c1cnn2-c1ccc(F)cc1)c1cncc(S(C)(=O)=O)c1 [1-(4-Fluorophenyl)-1H-pyrazolo[3,4-c]pyridine-4-carboxylic acid [(S)-1-(5-methanesulfonyl-pyridin-3-yl)-butyl]-amide] | 0.3
CC[C@H](NC(=O)c1cncc2c1cnn2-c1ccc(Cl)cc1)c1cncc(Br)c1 [1-(4-Chlorophenyl)-1H-pyrazolo[3,4-c]pyridine-4-carboxylic acid [(S)-1-(5-bromopyridin-3-yl)-propyl]-amide] | 0.6
C=CC[C@@H](NC(=O)c1cncc2c1cnn2-c1ccc(F)cc1)c1ccnc(S(C)(=O)=O)c1 [1-(4-Fluorophenyl)-1H-pyrazolo[3,4-c]pyridine-4-carboxylic acid [(R)-1-(2-methanesulfonyl-pyridin-4-yl)-but-3-enyl]-amide] | 1
CCCC(NC(=O)c1cncc2c1cnn2-c1ccc(F)cc1)c1cncc(S(=O)(=O)NC)c1 (centres unmarked) [1-(4-Fluorophenyl)-1H-pyrazolo[3,4-c]pyridine-4-carboxylic acid [1-(5-methylsulfamoyl-pyridin-3-yl)-butyl]-amide] | 0.5
